Results on six molecules are retold here after patent US4200650A, “2-Amino-cyclopent-1-ene-1-thiocarboxylic acid-disulfides to treat noradrenergic malfunctions” (Richter Gedeon Vegyeszeti Gyar Rt., priority 1976, dated 1980).

Test [1] deals with dopamine-β-hydroxylase. Description: Determination of noradrenaline and dopamine levels of brain (dopamine-β-hydroxylase inhibiting effect). Format: in vivo, male Wistar rats. The following applies: ± standard error. The method, then: (§1) The dopamine-β-hydroxylase inhibiting effects of the new compounds according to the invention were examined by the following tests:
(§2) The tests were performed on male Wistar rats weighing 150 to 200 g. The dopamine-β-hydroxylase inhibiting effects of the compounds were evaluated by determining the change of noradrenaline, dopamine and adrenaline levels of the cerebrum, heart, spleen and adrenal gland. The serotonine and 5-hydroxy-indolylacetic acid levels of the cerebrum were also determined. The measurements were performed as follows:
(§3) The animals were decapitated, the cerebrum, heart, spleen and adrenal gland were removed quickly, and the organs were frozen by placing them onto a metal sheet cooled with dry ice. The frozen organs were stored for maximum one night at -20° C.
Determination of the noradrenaline, dopamine, serotonine and 5-hydroxy-indolylacetic acid contents of brain
The brains were homogenized in 10 parts by volume of 0.4 n perchloric acid. The homogenized mixture was stored at -20° C. overnight, thereafter it was thawed and centrifuged as described above. A sample of the homogenized mixture corresponding to 0.5 g of brain was removed, the pH of the sample was adjusted to 8.0±0.1 with 0.1 molar tris-buffer of the above composition, and the sample was processed as described above for the determination of the noradrenaline content of heart and spleen, with the difference that 1.5 ml of 0.05 n perchloric acid were applied as eluting agent. 0.5 ml of the eluate were applied to determine the noradrenaline and dopamine contents. The measurement was performed as described above, with the difference that samples of 0.5 ml were applied for the recording of the fluorescency of noradrenaline. The residua was placed for 50 minutes into a drying oven heated to 100° C., thereafter the sample was cooled with ice water, and the fluorescency of dopamine was recorded at wavelengths of 325 nm (excitation) and 380 nm (emission).
In a further test series the serotonine and 5-hydroxy-indolylacetic acid contents were also determined, beside the determination of the noradrenaline and dopamine content, from the same sample. In this instance the brains were homogenized in 10 ml of 75% ethanol, 0.2 ml of EDTA-Na2 and 5% of ascorbic acid were added to the homogenized mixtures, and the homogenized mixtures were maintained at -20° C. overnight. The mixtures were centrifuged as described above, and 5.0 ml samples of the supernatant were removed. The samples were diluted with equal volumes of distilled water, and poured onto ion exchange columns of 0.5×1.5 cm dimensions, filled with buffered Amberlite CG-30 (200 to 400 mesh). The columns were washed with 5 ml of distilled water followed by 1.0 ml of 0.2 n hydrochloric acid, and the first effluent and the aqueous wash were collected for the determination of 5-hydroxy-indolylacetic acid. Elution was continued with further 1.2 ml of 0.2 n hydrochloric acid in order to remove noradrenaline, dopamine and serotonine. Samples of 0.3 ml were used for the determinations.
Noradrenaline and dopamine were determined by the method of Shellenberger, modified as described above, whereas serotonine was determined by the method of Curzon et al. (Brit. J. Pharmacol. 39, 653/1970/). The basic method was modified as follows: A 0.5% solution of ortho-phthal(di)aldehyde in absolute ethanol was diluted with 10 n hydrochloric acid to 50-fold of its original volume, and 0.6 ml of the resulting 0.01% ortho-phthal(di)aldehyde solution were added immediately to 0.5 ml of the serotonine-containing sample. The sample was placed into a hot water bath for 10 minutes, thereafter cooled with tap water, and the fluorescency was recorded at wavelengths of 360 nm (excitation) and 490 nm (emission).
In the tests disulfiram, 2,2-dipyridyl, bis(1-methyl-4-homopiperazinyl-thriocaronyl)-disulfide, sodium diethyldithiocarbamate and N-phenyl-N'-(2-thiazolyl)-thiourea were applied as reference substances. […]

Test [2] relates to dopamine-β-hydroxylase. The experiment in a line: Determination of the noradrenaline content of heart. Type of test: in vivo, male Wistar rats. The following applies: ± standard error. Here is the method: as §1, §2, §3
(§4) Determination of the noradrenaline content of heart and spleen
(§5) The organs were weighed in frozen state and then homogenized in 5.0 ml of 0.4 n perchloric acid containing 0.05% of EDTA-Naa and 0.1% of Na2 S2 O5. The homogenized mixtures were centrifuged as described above for the treatment of adrenal gland, the supernatants were decanted, and the pH was adjusted to 8.0±0.1 with a 0.1 molar tris buffer containing 20 g/l of NaOH and 25 g/l of EDTA-Na2. 100 mg of prepared Al2 O3 (Anton et al.: J. Pharm. Ther. 138, 360/1962/) were added to the samples, and the mixtures were shaken mechanically for 20 minutes. Thereafter Al2 O3 was washed with 2×10 ml of distilled water, and noradrenaline was eluted with 1.0 ml of 0.05 n perchloric acid. 0.5 ml samples of the eluate were applied for the determination of noradrenaline. Noradrenaline was determined according to the method of Shellenberger et al. (Anal. Biochem. 39, 356/1971/), with the following modifications of the basic procedure: 0.5 ml of 0.1 molar Na-K-phosphate buffer, containing 9 g/l of EDTA-Na2, were added to 0.5 ml of the eluate, and the catecholamines (noradrenaline in the examination of heart and spleen and noradrenaline and dopamine in the examination of the cerebrum) were oxidized with 0.1 ml of a 0.1 n iodine solution in 5% potassium iodide. After exactly 2 minutes oxidation was stopped by adding 0.25 ml of a 2.5% sodium sulfite solution in 4.4 n aqueous sodium hydroxide to the mixture. 2 minutes after the introduction of the alkaline sulfite solution 0.2 ml of concentrated acetic acid were added to the samples, upon which the pH decreased to 4.4 to 4.5 Thereafter the samples were placed for 5 minutes into a drying oven heated to 100° C., and then the samples were cooled with ice water. The fluorescency of noradrenaline was measured with an OPTON spectrophotometer at wavelengths of 380 nm (excitation) and 490 nm (emission).
(§6) In the tests disulfiram, 2,2-dipyridyl, bis(1-methyl-4-homopiperazinyl-thriocaronyl)-disulfide, sodium diethyldithiocarbamate and N-phenyl-N'-(2-thiazolyl)-thiourea were applied as reference substances. The values indicated in Table 1 are the percentages in relation to the amine levels of the controls measured in the same tests (± standard error). The statistical calculations were performed on a TPA/i type computer, using Student's t test.

The test system of test [3] is dopamine-β-hydroxylase. Description: Determination of the noradrenaline content of spleen. The settings on record: ± standard error. Type of test: in vivo, male Wistar rats. The method, then: as §1, §2, §3, §4, §5, §6
The test system of test [4] is dopamine-β-hydroxylase. The experiment in a line: Determination of the adrenaline content of adrenal gland. Type of test: in vivo, male Wistar rats. The settings on record: ± standard error. Here is the method:
as §1, §2, §3
Determination of the adrenaline content of adrenal gland
The adrenal glands were freed from fat and homogenized in 3.0 ml of ice-cold 0.4 n perchloric acid. The homogenized mixtures were centrifuged for 10 minutes at 0° C. with a speed of 3200 r.p.m. using a Janetzky K-70 type centrifuge. 0.05 ml samples were taken from the supernatant, and the adrenaline level was determined directly by the method of Laverty et al. (Anal. Biochem. 22, 269/1968/).
as §6

The subject of test [5] is dopamine-β-hydroxylase. The following applies: literature; cited from earlier work.

In the case of `CCNC1=C(C(=S)SSC(=S)C2=C(NCC)CCC2)CCC1` [Compound M-6, 2-(N-ethyl)-amino-cyclopent-1-ene-thiocarboxylic acid-disulfide], the “Brain DA (dopamine) level, percentages in relation to the controls” value (from here on “Brain DA (dopamine) level, percentages”) is on record as 99.0±5.22% in test [1] (i.p., 100 mg/kg, 4 hours); 134.9±5.4% in test [1] (i.p., 200 mg/kg, 4 hours); 121.7±6.1% in test [1] (i.p., 200 mg/kg, 8 hours); 106.7±3.4% in test [1] (p.o., 500 mg/kg, 4 hours); 92.6±4.0% in test [1] (p.o., 500 mg/kg, 8 hours). In addition, the “Brain NA (noradrenaline) level, percentages in relation to the controls” value amounted to 41.8±2.3% in test [1] (i.p., 100 mg/kg, 4 hours); 34.4±2.6% in test [1] (i.p., 200 mg/kg, 4 hours); 34.2±3.5% in test [1] (i.p., 200 mg/kg, 8 hours); 83.9±4.8% in test [1] (p.o., 500 mg/kg, 4 hours); 73.7±4.7% in test [1] (p.o., 500 mg/kg, 8 hours). Besides, the “Heart NA (noradrenaline) level, percentages in relation to the controls” value in test [2] (i.p., 100 mg/kg, 4 hours) was 92.9±3.3%; in test [2] (i.p., 200 mg/kg, 4 hours), 97.8±8.8%; in test [2] (i.p., 200 mg/kg, 8 hours), 81.3±5.7%; in test [2] (p.o., 500 mg/kg, 4 hours), 82.4±8.2%; in test [2] (p.o., 500 mg/kg, 8 hours) it was 97.5±5.6%. Also, the “Spleen NA (noradrenaline) level, percentages in relation to the controls” value worked out at 64.1±7.6% in test [3] (i.p., 100 mg/kg, 4 hours); 85.0±10.8% in test [3] (i.p., 200 mg/kg, 4 hours); 86.5±23.5% in test [3] (i.p., 200 mg/kg, 8 hours); 125.4±12.4% in test [3] (p.o., 500 mg/kg, 4 hours); 64.6±12.4% in test [3] (p.o., 500 mg/kg, 8 hours). Moreover, the “Adrenal gland AD (adrenaline) level, percentages in relation to the controls” value in test [4] (i.p., 100 mg/kg, 4 hours) was found to be 123.4±4.6%; in test [4] (i.p., 200 mg/kg, 4 hours) it was 97.3±4.1%; in test [4] (i.p., 200 mg/kg, 8 hours) it was 79.0±3.9%; in test [4] (p.o., 500 mg/kg, 4 hours), 121.4±13.7%; in test [4] (p.o., 500 mg/kg, 8 hours) it was 107.5±8.9%.

`NC1=C(C(=S)SSC(=S)C2=C(N)CCC2)CCC1` [Compound M-1]: the “Brain DA (dopamine) level, percentages” value in test [1] (i.p., 100 mg/kg, 4 hours) was determined as 121.2±5.8%; in test [1] (i.p., 200 mg/kg, 4 hours), 124.5±1.9%; in test [1] (i.p., 200 mg/kg, 8 hours) it was 109.0±5.9%. Moreover, the “Brain NA (noradrenaline) level, percentages in relation to the controls” value worked out at 69.5±12.1% in test [1] (i.p., 100 mg/kg, 4 hours); 56.7±5.9% in test [1] (i.p., 200 mg/kg, 4 hours); 56.5±6.3% in test [1] (i.p., 200 mg/kg, 8 hours). Besides, the “Heart NA (noradrenaline) level, percentages in relation to the controls” value is listed as 86.5±3.7% in test [2] (i.p., 100 mg/kg, 4 hours); 82.5±5.4% in test [2] (i.p., 200 mg/kg, 4 hours); 83.2±9.5% in test [2] (i.p., 200 mg/kg, 8 hours). Moreover, the “Spleen NA (noradrenaline) level, percentages in relation to the controls” value in test [3] (i.p., 200 mg/kg, 4 hours) is reported as 92.6±12.4%; in test [3] (i.p., 200 mg/kg, 8 hours) it was 91.2±12.6%. Further, the “Adrenal gland AD (adrenaline) level, percentages in relation to the controls” value was 87.2±6.7% in test [4] (i.p., 100 mg/kg, 4 hours); 70.9±5.8% in test [4] (i.p., 200 mg/kg, 4 hours); 60.2±3.2% in test [4] (i.p., 200 mg/kg, 8 hours).

For the molecule `NNc1nncc2ccccc12` [Hydralazine], in test [5], the “dopamine-β-hydroxylase inhibiting effects, in words” value was “possess dopamine-β-hydroxylase inhibiting effects”.

Take `C=CCNC1=C(C(=S)SSC(=S)C2=C(NCC=C)CCC2)CCC1` [Compound M-7, 2-(N-allyl)-amino-cyclopent-1-ene-thiocarboxylic acid-disulfide]: the “Brain DA (dopamine) level, percentages” value was 123.6±8.1% in test [1] (i.p., 200 mg/kg, 4 hours) and 104.7±5.7% in test [1] (i.p., 200 mg/kg, 8 hours). For the same molecule, the “Brain NA (noradrenaline) level, percentages in relation to the controls” value in test [1] (i.p., 200 mg/kg, 4 hours) is recorded as 50.5±5.2%; in test [1] (i.p., 200 mg/kg, 8 hours), 64.5±4.4%. The “Heart NA (noradrenaline) level, percentages in relation to the controls” value in test [2] (i.p., 200 mg/kg, 4 hours) is reported as 100.0±3.9%; in test [2] (i.p., 200 mg/kg, 8 hours) it was 91.8±3.7%. Further, the “Spleen NA (noradrenaline) level, percentages in relation to the controls” value worked out at 66.1±18.1% in test [3] (i.p., 200 mg/kg, 4 hours) and 88.5±33.9% in test [3] (i.p., 200 mg/kg, 8 hours). For the same molecule, the “Adrenal gland AD (adrenaline) level, percentages in relation to the controls” value in test [4] (i.p., 200 mg/kg, 4 hours) is recorded as 93.3±8.0%; in test [4] (i.p., 200 mg/kg, 8 hours) it was 69.8±6.8%.

In the case of `CC(N)Cc1ccccc1` (centres unmarked) [amphetamine], the “dopamine-β-hydroxylase inhibiting effects, in words” value in test [5] was “possess dopamine-β-hydroxylase inhibiting effects”.

Consider `NOCc1ccccc1` [benzyloxyamine], for which, in test [5], the “dopamine-β-hydroxylase inhibiting effects, in words” value is “exert dopamine-β-hydroxylase inhibiting effects” and the “duration of activity, in words” value is reported as “exert their activities for a short period”.
